From ChEMBL document CHEMBL1201862, “PubChem BioAssay data set” (2004)
Calls of active or inactive are those of the source.

Assays:
Albumin = Albumin (Bos taurus, UniProt P02769); experiment: Counterscreen for inhibitors of T-cell receptor (TCR)-CD3 interaction: Fluorescence-based biochemical high throughput dose response assay to identify inhibitors of T-cell receptor (TCR)-CD3 interaction using a TAMRA-labeled BSA probe.; format: functional
Caspase-7 = Caspase-7 (Homo sapiens, UniProt P55210); experiment: human caspase-7 inhibitors, dose response, selectivity assay for caspase-6 inhibitor project, biochemical, DEVD-R110 fluorescence, cherry-pick (AID 743295)
Caspase-6 = molecular target: T1, Caspase-6 (Homo sapiens, UniProt P55212); experiment: human caspase-6 inhibitors, dose response, biochemical, VEID-R110 fluorescence, cherry-pick (AID 720632)
T1 sequence (P55212 whole entry): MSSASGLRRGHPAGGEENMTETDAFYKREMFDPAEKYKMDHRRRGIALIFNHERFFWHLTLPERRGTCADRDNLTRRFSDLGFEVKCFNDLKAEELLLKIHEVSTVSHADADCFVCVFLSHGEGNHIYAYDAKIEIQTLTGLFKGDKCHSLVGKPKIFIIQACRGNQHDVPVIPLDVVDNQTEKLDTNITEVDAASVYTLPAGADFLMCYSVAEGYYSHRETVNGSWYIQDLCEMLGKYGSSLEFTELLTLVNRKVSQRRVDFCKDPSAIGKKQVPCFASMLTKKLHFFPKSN

cells [1] = format: functional, cell-based
[2] = molecular target: T2, Trace amine-associated receptor 1 (Homo sapiens, UniProt Q96RJ0); experiment: Counterscreen for agonists of the human trace amine associated receptor 1 (hTAAR1): Fluorescence-based cell-based high throughput dose response assay to identify hTAAR1 agonist that also desensitize TAAR1 receptor response.; format: functional
[3] = molecular target: T2, Trace amine-associated receptor 1; experiment: Fluorescence-based cell-based high throughput dose response assay to identify agonists of the human trace amine associated receptor 1 (TAAR1).; format: functional
cells [4] = format: functional, cell-based; remark: listed apart in the source
Major prion protein = Major prion protein (Homo sapiens, UniProt P04156); format: functional, cell-based
cells [5] = experiment: cells
[6] = HepG2 cell cytotoxicity, dose response, cytotoxicity control, plate reader, cherry-pick, antagonist series (AID 743416); format: functional, cell-based
[7] = LGR2 antagonists, dose response, cell-based, HEK293, CRE-luciferase reporter, cherry pick, set 2 (AID 743343); format: functional;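 further: transfected cells were stimulated with diluted bursicon conditioned medium after compound addition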
[8] = molecular target: Photoreceptor-specific nuclear receptor (Homo sapiens, UniProt Q9Y5X4); format: functional, cell-based;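 further: CHO-S cells with Gal4-NCOR and VP16-NR2E3 two-hybrid luciferase reporter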
[9] = A549 cell cytotoxicity, dose response, cytotoxicity control, plate reader, cherry-pick, antagonist series (AID 743412); format: functional, cell-based
[10] = MC4R antagonists, dose response, counter-screen for LGR2 antagonist project, cell-based, plate reader, cherry pick (AID 743444); format: functional;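 further: transfected HEK 293 cells stimulated with alpha-MSH peptide; potency of inhibitors of the alpha-MSH evoked signal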
A549 = experiment: A549 cell toxicity, dose response, cytotoxicity control, plate reader, cherry-pick samples (AID 687028); format: functional, cell-based; settings: Homo sapiens
[11] = HEK293 cell cytotoxicity, dose response, cytotoxicity control, plate reader, cherry-picked samples (AID 743446); format: functional, cell-based
[12] = molecular target: Tyrosyl-DNA phosphodiesterase 2 (Homo sapiens, UniProt O95551); experiment: human TDP2 enzyme inhibitors, dose response, biochemical, epi absorbance, IC50 (AID 743297)
Hexokinase HKDC1 = molecular target: T3, Hexokinase HKDC1 (Homo sapiens, UniProt Q2TB90); experiment: HKDC1 hexokinase inhibitors, dose response, biochemical, W721R variant (AID 504729); format: functional
T3 sequence (Q2TB90 whole entry): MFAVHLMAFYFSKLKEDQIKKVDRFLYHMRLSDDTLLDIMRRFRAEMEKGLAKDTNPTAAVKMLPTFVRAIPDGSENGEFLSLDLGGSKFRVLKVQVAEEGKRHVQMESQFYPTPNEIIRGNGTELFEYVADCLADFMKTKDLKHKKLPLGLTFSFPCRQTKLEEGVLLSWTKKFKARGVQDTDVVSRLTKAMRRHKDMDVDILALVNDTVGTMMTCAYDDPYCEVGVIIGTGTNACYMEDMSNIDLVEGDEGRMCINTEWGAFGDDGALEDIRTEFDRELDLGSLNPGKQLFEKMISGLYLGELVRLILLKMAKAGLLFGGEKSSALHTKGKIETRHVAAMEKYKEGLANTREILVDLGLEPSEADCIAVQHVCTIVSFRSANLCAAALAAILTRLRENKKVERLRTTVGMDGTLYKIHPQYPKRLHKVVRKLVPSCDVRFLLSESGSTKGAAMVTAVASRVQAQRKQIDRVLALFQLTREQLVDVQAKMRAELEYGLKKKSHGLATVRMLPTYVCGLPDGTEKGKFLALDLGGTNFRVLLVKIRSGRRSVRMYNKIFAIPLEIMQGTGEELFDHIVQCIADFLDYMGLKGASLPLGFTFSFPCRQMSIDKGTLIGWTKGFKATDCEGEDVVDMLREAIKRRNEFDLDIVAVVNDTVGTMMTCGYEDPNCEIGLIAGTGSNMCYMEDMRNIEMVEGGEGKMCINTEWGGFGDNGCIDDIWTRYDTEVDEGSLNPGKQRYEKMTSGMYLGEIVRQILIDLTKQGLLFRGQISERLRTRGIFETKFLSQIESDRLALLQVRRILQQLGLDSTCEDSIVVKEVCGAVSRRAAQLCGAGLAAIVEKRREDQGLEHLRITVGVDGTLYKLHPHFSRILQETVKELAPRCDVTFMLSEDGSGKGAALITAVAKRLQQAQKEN

[13] = non-specific cell cytotoxicity, dose response, cytotoxicity control for PAX8 inhibitor project, plate reader, dry powder samples (AID 743021); format: functional, cell-based
[14] = molecular target: T4, Polyadenylate-binding protein 1 (Homo sapiens, UniProt P11940); experiment: PABP1 MLLE–PAM2 binding inhibitor potency, dose response, biochemical, fluorescence polarization, FITC-PAM2 peptide (AID 602259); format: functional; settings: read-out: IC50_Mean
[15] = molecular target: T4, Polyadenylate-binding protein 1; experiment: PABP1 MLLE–PAM2 interaction inhibitors, dose response, miRNA deadenylation inhibitor project, biochemical, fluorescence polarization, Cy5-PAM2 peptide, secondary (AID 602260); format: functional; settings: read-out: IC50_Mean
Paired box protein Pax-8 = Paired box protein Pax-8 (Homo sapiens, UniProt Q06710); experiment: inhibitors of PAX8-driven TPO luciferase reporter, dose response, RMG-I cells, cherry-pick (AID 687027); format: functional, cell-based;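 further: luciferase reporter driven by Pax8 target thyroperoxidase promoter measured by SteadyGlo luminescence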
[16] = molecular target: T5, Histone-lysine N-methyltransferase NSD2 (Homo sapiens, UniProt O96028); format: biochemical
T5 sequence (O96028 whole entry): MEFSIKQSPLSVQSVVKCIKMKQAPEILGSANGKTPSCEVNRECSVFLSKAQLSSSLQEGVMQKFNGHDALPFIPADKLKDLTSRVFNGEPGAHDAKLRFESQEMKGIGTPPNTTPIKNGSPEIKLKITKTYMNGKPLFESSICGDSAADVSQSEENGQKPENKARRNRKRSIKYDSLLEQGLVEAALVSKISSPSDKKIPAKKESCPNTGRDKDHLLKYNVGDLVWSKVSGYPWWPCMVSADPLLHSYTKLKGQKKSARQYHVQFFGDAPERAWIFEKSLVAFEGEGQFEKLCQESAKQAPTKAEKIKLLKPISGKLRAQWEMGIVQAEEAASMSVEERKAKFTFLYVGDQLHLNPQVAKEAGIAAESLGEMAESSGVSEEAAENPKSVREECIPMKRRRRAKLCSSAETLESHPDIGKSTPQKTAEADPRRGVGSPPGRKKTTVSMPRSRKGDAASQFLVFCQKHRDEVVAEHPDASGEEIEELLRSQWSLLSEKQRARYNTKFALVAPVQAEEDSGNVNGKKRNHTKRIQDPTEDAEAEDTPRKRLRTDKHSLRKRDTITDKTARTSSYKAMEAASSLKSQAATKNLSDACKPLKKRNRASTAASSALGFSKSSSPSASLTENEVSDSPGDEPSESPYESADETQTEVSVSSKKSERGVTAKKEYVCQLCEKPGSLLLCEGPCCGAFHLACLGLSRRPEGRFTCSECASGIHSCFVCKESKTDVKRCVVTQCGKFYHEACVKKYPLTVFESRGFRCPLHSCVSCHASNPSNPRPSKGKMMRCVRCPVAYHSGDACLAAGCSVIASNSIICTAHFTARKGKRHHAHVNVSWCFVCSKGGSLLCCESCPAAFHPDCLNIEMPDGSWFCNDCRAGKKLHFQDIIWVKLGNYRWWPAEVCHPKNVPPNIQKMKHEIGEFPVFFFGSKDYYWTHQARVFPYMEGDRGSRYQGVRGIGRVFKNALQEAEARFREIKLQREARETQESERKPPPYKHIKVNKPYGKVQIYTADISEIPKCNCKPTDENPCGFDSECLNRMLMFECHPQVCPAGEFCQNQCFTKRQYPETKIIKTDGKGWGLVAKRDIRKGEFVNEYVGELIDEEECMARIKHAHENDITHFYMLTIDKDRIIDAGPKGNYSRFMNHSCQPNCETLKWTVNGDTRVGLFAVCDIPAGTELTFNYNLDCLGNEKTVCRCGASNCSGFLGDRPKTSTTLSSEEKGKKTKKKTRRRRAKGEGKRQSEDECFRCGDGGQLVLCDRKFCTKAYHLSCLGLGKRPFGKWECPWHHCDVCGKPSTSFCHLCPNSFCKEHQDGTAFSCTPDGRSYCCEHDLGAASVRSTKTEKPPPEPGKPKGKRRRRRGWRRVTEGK

Galanin receptor type 3 = Galanin receptor type 3 (Homo sapiens, UniProt O60755); experiment: Fluorescence-based cell-based primary high throughput dose response assay to identify antagonists of the Galanin Receptor 3 (GalR3).; format: functional
cells [17] = format: functional, cell-based; settings: HEK-CNG
[18] = NIH:OVCAR-3 ovarian cancer cell cytotoxicity, dose response, PAX8 inhibitor project, plate reader, dry powder samples (AID 743044); format: functional, cell-based
[19] = lymphoblastoid cell cytotoxicity, dose response, cytotoxicity control, plate reader, dry powder, set 2 (AID 624367); format: functional
[20] = cytotoxicity in OVCAR8 ovarian cancer cells, dose response, PAX8 project, cell-based, plate reader, dry powder samples (AID 743197); format: functional; settings: OVCAR-8
[21] = inhibitors of clade B AD8 Env fusion, dose response, cell-based, cherry-pick (AID 652062); format: functional;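 further: luciferase signal from cell-cell fusion driven by HIV-1 clade B AD8 Env; potency is for inhibitors of fusion seen as a drop in luminescence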
[22] = inhibitors of HIV Env-driven cell fusion, dose response, cherry-pick (AID 652057); format: functional, cell-based
[23] = CEM21 lymphoblast cell cytotoxicity, dose response, cytotoxicity control for viral fusion inhibitor project, CellTiter-Glo luminescence, cherry-picked (AID 652042); format: functional, cell-based;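 further: potency for signal decrease meaning cytotoxicity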
Protein Wnt-3a = Protein Wnt-3a (Mus musculus, UniProt P27467); experiment: SAR analysis of small molecule antagonists of Gli-SUFU in a Wnt3a luminescent reporter assay.; format: functional

O=c1c(CO)cc(CO)cc(CO)c1O
IC50 (Albumin): > 94 µM (inactive) | AC50 (Caspase-7): > 70 µM (inactive) | AC50 (Caspase-6): 2.22 µM (active)

COc1cc(C)c(NC(=O)C(S)=NCCc2ccccc2)cc1C
IC50 (cells [1]): > 29.9 µM (inactive) | IC50 [2]: 2.38 µM (active) | EC50 [3]: 0.766 µM (active) | EC50 (cells [4]): > 29.9 µM (inactive)

CCCc1nc(SCC(=O)NNC(=O)c2ccc(OC)cc2)c2ccccc2n1
IC50 (Major prion protein): 1.52 µM (active) | IC50 (cells [5]): > 138 µM (inactive)

Cc1cnc(NC(=O)C2CC(=O)N(c3cccc(Cl)c3)C2)s1 (centres undefined)
AC50 [6]: 0.763 µM (active) | AC50 [7]: 4.8 µM (active) | IC50 [8]: 0.0757 µM (active) | AC50 [9]: 4.65 µM (active) | AC50 [10]: 5.08 µM (active) | AC50 (A549): 14.8 µM (active) | AC50 [11]: > 52 µM (inactive)

NC1=C(Br)C(=O)c2ncccc2C1=O
IC50 [12]: 2.66 µM (active) | IC50 [8]: 2.48 µM (active) | IC50 (Hexokinase HKDC1): 8.91 µM (active) | AC50 [13]: 10.1 µM (active) | IC50 [14]: > 66 µM (inactive) | IC50 [15]: > 66 µM (inactive) | AC50 (Paired box protein Pax-8): 1.22 µM (active) | AC50 [16]: 0.164 µM (active)

CCCCCC(O)C=CC1C(O)CC(O)C1CC=CCCCC(=O)O (centres undefined)
IC50 (Galanin receptor type 3): > 0.123 µM (active) | EC50 (cells [17]): > 29.9 µM (inactive)

O=C(Nc1ccc(C(F)(F)F)cc1)Nc1ccc2c(c1)[C@H]1C[C@@H](CC(=O)N3CCc4ccccc4C3)O[C@@H](CO)[C@H]1O2
AC50 [18]: 63.1 µM (active) | AbsAC35 [19]: 44.28 µM | AC50 [20]: > 70 µM (inactive) | AC50 (Paired box protein Pax-8): 10.7 µM (active)

COc1ccc2c3c([nH]c2c1)[C@H](CO)N(C(=O)Nc1cccc(F)c1)CC31CN(S(=O)(=O)c2cccc(C)c2)C1
AC50 [21]: 38.1 µM (active) | AC50 [22]: 27.7 µM (active) | AC50 [23]: 27.5 µM (active)

O=C(Nc1cc(N2CCCC2)ncn1)c1ccccc1
IC50 (Protein Wnt-3a): > 21.8 µM (inactive)
